Test results reported in patent US20050119179A1, “Inositol 1, 4, 5-triphosphate receptor (type 1), phosphorylation and modulation by CDC2” (priority 2003, published 2005).

Tests used:
IP3 receptor = IP3 receptor function in wild type and phosphorylation deficient mutant DT40 cells before and after activation; assay type: cell-based; conditions: phosphorylation deficient mutant, FIG. 6
Experimental: The compounds were tested on wild type DT40 cells. The phosphorylation deficient cells were generated by transfecting phosphorylation deficient IP3R mutant cDNAs into triple IP3R deficient DT40 cells. These cells express mutant IP3R with Ser421 and Thr799 replaced by alanine residues. The remaining portion of the receptor is the same as native IP3R.

native cerebellar IP3R = target: T1, native cerebellar IP3R (Mus musculus, UniProt P11881); conditions: read-out: affinity for IP3; cited from earlier work
T1 construct: host or cells: cerebellum

[1] = test system: IP3R1 phosphorylation at Ser421 and Thr799 in DT40 cells; assay: IP3R1 phosphorylation in DT40 cells, immunoblot with αSer421 and αThr799; assay type: cell-based; conditions: 1 μM nocodazole, 16 h, serum-starved DT40 cells, compared to control cells
Experimental: FIG. 4 IP3R1 phosphorylation at Ser421 and Thr799 occurs in vivo. DT40 cells were serum-starved for 24 h and cultured with and without 1 μM nocodazole (control) for 16 h in RPMI-1640 medium containing 10% FBS. After 16 h in culture, cells were washed two times with PBS, and cell lysates were resolved on 6% SDS-PAGE gels and immunoblotted with αSer^421 (A), αThr^799 (B) or αIP3R1 (C).
Cells were equalized for number and lysed in ice-cold lysis buffer containing 0.5% Nonidet P-40, 25 mM HEPES, pH 7.4, 150 mM NaCl, 1 mM EDTA, 1 mM sodium orthovanadate and protease inhibitors. Cell lysates were centrifuged at 13,000× g in a microcentrifuge, and the supernatants were subjected to immunoblotting and immunoprecipitation (Frangioni and Neal 1993; Matter, et al., 1993). The membranes were blocked in TBST (20 mM Tris/HCl, pH 7.4, 0.9% NaCl, and 0.05% Tween 20) containing 5% nonfat dried milk for 1 hr followed by incubation with primary antibodies. After extensive washings, the membranes were incubated with secondary antibody conjugated to horseradish peroxidase (goat anti-rabbit IgG; Pharmingen, Calif.) in TBST containing 5% nonfat dried milk. The immunoblots were analyzed using an ECL detection system (Amersham, Piscataway, N.J.). […] Phosphoproteins were separated by SDS-PAGE and detected by autoradiography as described (Frangioni and Neal 1993; Means 1994). […]

[2] = test system: syncytial cell death induced by HIV infection; conditions: inhibition of cdc2 activity; cited from earlier work

T1 sequence (P11881 whole entry): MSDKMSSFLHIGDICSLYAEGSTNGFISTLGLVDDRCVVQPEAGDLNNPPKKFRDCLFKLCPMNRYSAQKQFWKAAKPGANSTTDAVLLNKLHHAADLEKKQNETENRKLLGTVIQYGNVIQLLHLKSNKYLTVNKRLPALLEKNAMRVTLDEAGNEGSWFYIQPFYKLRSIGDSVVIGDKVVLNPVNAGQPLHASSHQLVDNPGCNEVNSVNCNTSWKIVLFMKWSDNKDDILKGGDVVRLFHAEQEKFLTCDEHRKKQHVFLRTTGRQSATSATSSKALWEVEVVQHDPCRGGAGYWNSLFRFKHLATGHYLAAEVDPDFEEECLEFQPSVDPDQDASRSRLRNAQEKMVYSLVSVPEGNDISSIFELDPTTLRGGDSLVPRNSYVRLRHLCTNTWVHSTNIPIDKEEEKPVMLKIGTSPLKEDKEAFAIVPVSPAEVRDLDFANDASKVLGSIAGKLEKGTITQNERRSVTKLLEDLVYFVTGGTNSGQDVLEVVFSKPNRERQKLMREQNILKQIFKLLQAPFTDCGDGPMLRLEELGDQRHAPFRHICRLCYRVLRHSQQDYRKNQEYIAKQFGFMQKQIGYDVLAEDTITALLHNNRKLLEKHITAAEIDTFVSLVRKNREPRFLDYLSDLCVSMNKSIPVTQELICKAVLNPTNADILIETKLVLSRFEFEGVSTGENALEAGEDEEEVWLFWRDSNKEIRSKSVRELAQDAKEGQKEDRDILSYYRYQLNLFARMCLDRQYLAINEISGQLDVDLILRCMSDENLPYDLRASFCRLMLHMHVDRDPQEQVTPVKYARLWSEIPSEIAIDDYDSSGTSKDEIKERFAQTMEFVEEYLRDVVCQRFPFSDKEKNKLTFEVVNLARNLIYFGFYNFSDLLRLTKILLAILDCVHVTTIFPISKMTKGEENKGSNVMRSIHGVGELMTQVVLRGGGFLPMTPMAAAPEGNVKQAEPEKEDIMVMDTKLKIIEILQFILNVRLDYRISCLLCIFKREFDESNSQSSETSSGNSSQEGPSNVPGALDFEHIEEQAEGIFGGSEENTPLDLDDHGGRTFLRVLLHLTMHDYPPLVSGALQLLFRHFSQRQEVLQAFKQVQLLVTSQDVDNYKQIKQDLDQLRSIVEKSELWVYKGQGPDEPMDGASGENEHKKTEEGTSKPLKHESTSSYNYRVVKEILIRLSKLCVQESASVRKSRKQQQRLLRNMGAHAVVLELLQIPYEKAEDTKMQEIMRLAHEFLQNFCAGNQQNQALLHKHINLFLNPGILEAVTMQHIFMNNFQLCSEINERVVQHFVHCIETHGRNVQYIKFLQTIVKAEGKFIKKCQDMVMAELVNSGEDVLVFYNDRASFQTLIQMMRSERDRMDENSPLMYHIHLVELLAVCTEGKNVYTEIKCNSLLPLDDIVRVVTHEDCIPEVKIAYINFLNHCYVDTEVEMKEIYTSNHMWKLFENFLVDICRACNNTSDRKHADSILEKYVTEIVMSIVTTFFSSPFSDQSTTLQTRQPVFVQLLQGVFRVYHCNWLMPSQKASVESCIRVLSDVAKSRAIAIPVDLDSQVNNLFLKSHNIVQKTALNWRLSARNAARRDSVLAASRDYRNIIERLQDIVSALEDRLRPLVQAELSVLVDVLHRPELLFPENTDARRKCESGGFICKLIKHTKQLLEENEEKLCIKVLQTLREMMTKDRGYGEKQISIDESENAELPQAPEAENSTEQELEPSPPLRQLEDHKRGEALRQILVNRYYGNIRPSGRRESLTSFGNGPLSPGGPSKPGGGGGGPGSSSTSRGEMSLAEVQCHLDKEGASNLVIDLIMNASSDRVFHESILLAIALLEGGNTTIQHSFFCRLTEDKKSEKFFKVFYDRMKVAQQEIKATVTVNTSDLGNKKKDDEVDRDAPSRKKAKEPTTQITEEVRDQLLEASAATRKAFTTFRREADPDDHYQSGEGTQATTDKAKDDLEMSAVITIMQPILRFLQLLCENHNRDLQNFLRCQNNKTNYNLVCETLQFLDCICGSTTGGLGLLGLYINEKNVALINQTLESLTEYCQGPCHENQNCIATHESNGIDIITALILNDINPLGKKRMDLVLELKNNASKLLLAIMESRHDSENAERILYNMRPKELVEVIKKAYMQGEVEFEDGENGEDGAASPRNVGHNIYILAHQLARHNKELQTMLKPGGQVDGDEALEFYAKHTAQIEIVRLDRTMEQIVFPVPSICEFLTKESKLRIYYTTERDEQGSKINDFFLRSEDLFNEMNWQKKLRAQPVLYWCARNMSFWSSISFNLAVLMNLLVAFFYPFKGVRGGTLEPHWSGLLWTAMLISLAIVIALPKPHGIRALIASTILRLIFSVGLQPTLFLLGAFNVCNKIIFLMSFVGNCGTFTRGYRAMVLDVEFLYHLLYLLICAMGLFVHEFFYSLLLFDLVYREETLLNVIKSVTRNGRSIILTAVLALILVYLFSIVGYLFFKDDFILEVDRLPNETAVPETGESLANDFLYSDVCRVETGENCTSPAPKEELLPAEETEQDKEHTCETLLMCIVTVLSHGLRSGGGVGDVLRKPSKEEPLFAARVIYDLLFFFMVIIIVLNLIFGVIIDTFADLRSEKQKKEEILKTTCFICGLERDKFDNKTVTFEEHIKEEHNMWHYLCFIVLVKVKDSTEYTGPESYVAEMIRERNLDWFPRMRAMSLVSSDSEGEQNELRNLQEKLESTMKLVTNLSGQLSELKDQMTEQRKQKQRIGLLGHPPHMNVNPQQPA

Question: For NCCOB(c1ccccc1)c1ccccc1 [2-APB], which IP3 receptor function (IP3 receptor) is on record?
Answer: affect IP3 receptor function

Question: Which Kd (native cerebellar IP3R) does the source give for O=P(O)(O)O[C@@H]1[C@H](O)[C@H](O)[C@@H](OP(=O)(O)O)[C@H](OP(=O)(O)O)[C@H]1O [IP3, inositol 1,4,5-trisphosphate] here?
Answer: 0.083 µM

Question: For COC(=O)Nc1nc2ccc(C(=O)c3cccs3)cc2[nH]1 [Nocodazole, nocodazole], which “IP3R1 phosphorylation at both Ser421 and Thr799” value [1] is on record?
Answer: greatly enhanced IP3R1 phosphorylation

Question: With CC[C@H](CO)Nc1nc(NCc2ccccc2)c2ncn(C(C)C)c2n1 [roscovitine] as the compound, how does the “syncytial cell death induced by HIV infection” value [2] read?
Answer: prevented syncytial cell death

Question: For Xestospongin, which IP3 receptor function (IP3 receptor) is on record?
Answer: affect IP3 receptor function
